Results from patent US20260265235A1, “BICYCLOAMINE CARBOXAMIDE DERIVATIVE” (Sumitomo Pharma Co., Ltd., priority 2022, published 2026).

biological target: T1, Human orexin receptor type 2 (Homo sapiens, UniProt O43614); assay: Test Example 2: agonist activity for orexin receptor type 2 (aequorin luminescence, intracellular calcium mobilization in CHO cells); type: cell-based; conditions: compound 10 μM; relative percentage of luminescence for the luminescence (100%) of Orexin A (100 μM); CHO cells transiently expressing human orexin receptor type 2 and apoaequorin
T1 construct: expressed in transfected cells; host or cells: CHO cells (transient expression, with apoaequorin)
T1 sequence (O43614 1-444): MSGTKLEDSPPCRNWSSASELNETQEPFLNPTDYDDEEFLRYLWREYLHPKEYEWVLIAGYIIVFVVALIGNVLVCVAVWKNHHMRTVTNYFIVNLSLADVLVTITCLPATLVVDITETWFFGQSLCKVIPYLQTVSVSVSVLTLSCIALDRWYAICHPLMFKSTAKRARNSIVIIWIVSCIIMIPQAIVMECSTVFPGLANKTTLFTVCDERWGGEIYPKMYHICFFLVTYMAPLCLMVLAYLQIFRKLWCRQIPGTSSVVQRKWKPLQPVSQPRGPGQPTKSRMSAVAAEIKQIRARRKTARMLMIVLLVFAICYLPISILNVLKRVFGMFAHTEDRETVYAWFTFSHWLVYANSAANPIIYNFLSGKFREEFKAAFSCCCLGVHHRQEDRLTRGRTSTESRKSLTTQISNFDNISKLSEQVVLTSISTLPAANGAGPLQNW
Experimental: Test Example 2: Measurement of Agonist Activity for Orexin Receptor Type 2
Human orexin receptor type 2 and apoaequorin were transiently expressed in CHO cells, and the agonist activity was evaluated based on intracellular calcium mobilization with ligand stimulation. The CHO cells transiently-expressed human orexin receptor type 2 and apoaequorin were seeded on a 384-well plate by 2,000 cells/well, and then incubated for 16-22 hours. After the plate was returned to room temperature, Coelenterazine hcp (final concentration: 1 μM) was added to the plate, and the plate was allowed to stand at room temperature for 2 hours. And then, Orexin A (PEPTIDE INSTITUTE, INC., Lot. 711101) or each test compound was added to the plate, and the luminescence of the cells was measured with FDSS7000 (Hamamatsu Photonics K.K.), wherein Orexin A and each test compound were dissolved in DMSO (final concentration: 0.1%), and diluted with a buffer (Hanks, 20 mM HEPES, 0.1% BSA). The agonist activity of each test compound for orexin receptor type 2 was calculated as relative percentage of luminescence for the luminescence (100%) of Orexin A (100 μM).
Each agonist activity of the compounds obtained in Examples (10 μM) for orexin receptor type 2 is shown in the table below as relative percentage of luminescence for the luminescence (100%) of Orexin A (100 μM).

Compared with Cc1nc([C@@H]2C[C@@H]3CN(C(=O)N[C@@H]4[C@@H](N5CCN(C(C)C)CC5)CCCC4(F)F)C[C@@H]3C2)no1 [Example 30, (3aR,5R,6aS)—N-{(1R,6S)-2,2-difluoro-6-[4-(propan-2-yl)piperazin-1-yl]cyclohexyl}-5-(5-methyl-1,2,4-oxadiazol-3-yl)hexahydropenta[c]pyrrole-2(1H)-carboxamide], CC(C)N1CCN([C@H]2CCCC(F)(F)[C@@H]2NC(=O)N2C[C@H]3C[C@@H](c4ncccn4)C[C@H]3C2)CC1 [Example 26, (3aR,5R,6aS)—N-{(1R,6S)-2,2-difluoro-6-[4-(propan-2-yl)piperazin-1-yl]cyclohexyl}-5-(pyrimidin-2-yl)hexahydropenta[c]pyrrole-2(1H)-carboxamide] is lower in “Agonist Activity (%)” value: 374% for the first, 345% for the second.

Going from CC(C)N1CCN([C@H]2CCCC(F)(F)[C@@H]2NC(=O)N2C[C@H]3C[C@@H](c4ccccn4)C[C@H]3C2)CC1 [Example 25, (3aR,5R,6aS)—N-{(1R,6S)-2,2-difluoro-6-[4-(propan-2-yl)piperazin-1-yl]cyclohexyl}-5-(pyridin-2-yl)hexahydropenta[c]pyrrole-2(1H)-carboxamide] to Cc1cccc([C@@H]2C[C@@H]3CN(C(=O)N[C@@H]4[C@@H](N5CCN(C(C)C)CC5)CCCC4(F)F)C[C@@H]3C2)c1 [Example 24, (3aR,5R,6aS)—N-{(1R,6S)-2,2-difluoro-6-[4-(propan-2-yl)piperazin-1-yl]cyclohexyl}-5-(3-methylphenyl)hexahydropenta[c]pyrrole-2(1H)-carboxamide], the “Agonist Activity (%)” value rises from 396% to 414%.

Compared with Cc1nc(C2C[C@H]3CC(C(=O)N[C@@H]4[C@@H](O[C@H]5CCN(C(C)C)C5)CCCC4(F)F)C[C@H]3C2)no1 (stereo partly drawn) [Example 32, (3aR,5R,6aS)—N-[(1R,6S)-2,2-difluoro-6-{[(3S)-1-(propan-2-yl)pyrrolidin-3-yl]oxy}cyclohexyl]-5-(5-methyl-1,2,4-oxadiazol-3-yl)hexahydropenta[c]pyrrole-2(1H)-carboxamide], CC(C)N1CC[C@H](O[C@H]2CCCC(F)(F)[C@@H]2NC(=O)N2C[C@@H]3CN(c4ccccc4)C[C@@H]3C2)C1 [Example 29, (3aR,6aS)—N-[(1R,6S)-2,2-difluoro-6-{[(3S)-1-(propan-2-yl)pyrrolidin-3-yl]oxy}cyclohexyl]-5-phenylhexahydropyrrolo[3,4-c]pyrrole-2(1H)-carboxamide] is higher in “Agonist Activity (%)” value: 345% for the first, 393% for the second.

Compared with CC(C)N1CC[C@H](N(C)[C@H]2CCCC(F)(F)[C@@H]2NC(=O)N2C[C@@H]3CN(c4ccccc4)C[C@@H]3C2)C1 [Example 34, (3aR,6aS)—N-[(1R,6S)-2,2-difluoro-6-{methyl[(3S)-1-(propan-2-yl)pyrrolidin-3-yl]amino}cyclohexyl]-5-phenylhexahydropyrrolo[3,4-c]pyrrole-2(1H)-carboxamide], CC(C)N1CC[C@H](N(C)[C@H]2CCCC(F)(F)[C@@H]2NC(=O)N2C[C@H]3CC(c4ccccc4)C[C@H]3C2)C1 (stereo partly drawn) [Example 33, (3aR,5R,6aS)—N-[(1R,6S)-2,2-difluoro-6-{methyl[(3S)-1-(propan-2-yl)pyrrolidin-3-yl]amino}cyclohexyl]-5-phenylhexahydropenta[c]pyrrole-2(1H)-carboxamide] is higher in “Agonist Activity (%)” value: 341% for the first, 343% for the second.

First: Cc1ccc(N2C[C@H]3CN(C(=O)N[C@@H]4[C@@H](N5CCN(C(C)C)CC5)CCCC4(F)F)C[C@H]3C2)cc1 [Example 23, (3aR,6aS)—N-{(1R,6S)-2,2-difluoro-6-[4-(propan-2-yl)piperazin-1-yl]cyclohexyl}-5-(4-methylphenyl)hexahydropyrrolo[3,4-c]pyrrole-2(1H)-carboxamide]
Second: CC(C)N1CCN([C@H]2CCCC(F)(F)[C@@H]2NC(=O)N2C[C@@H]3CN(c4cccc(F)c4)C[C@@H]3C2)CC1 [Example 22, (3aR,6aS)—N-{(1R,6S)-2,2-difluoro-6-[4-(propan-2-yl)piperazin-1-yl]cyclohexyl}-5-(3-fluorophenyl)hexahydropyrrolo[3,4-c]pyrrole-2(1H)-carboxamide]
The “Agonist Activity (%)” value of the first is higher: 404% for the first, 399% for the second.

Going from CC(C)N1CCN([C@H]2CCCC(F)(F)[C@@H]2NC(=O)N2C[C@@H]3CN(c4ccccn4)C[C@@H]3C2)CC1 [Example 20, (3aR,6aS)—N-{(1R,6S)-2,2-difluoro-6-[4-(propan-2-yl)piperazin-1-yl]cyclohexyl}-5-(pyridin-2-yl)hexahydropyrrolo[3,4-c]pyrrole-2(1H)-carboxamide] to CC(C)N1CCN([C@H]2CCCC(F)(F)[C@@H]2NC(=O)N2C[C@@H]3CN(c4ccccc4F)C[C@@H]3C2)CC1 [Example 19, (3aR,6aS)—N-{(1R,6S)-2,2-difluoro-6-[4-(propan-2-yl)piperazin-1-yl]cyclohexyl}-5-(2-fluorophenyl)hexahydropyrrolo[3,4-c]pyrrole-2(1H)-carboxamide], the “Agonist Activity (%)” value rises from 345% to 390%.
